Data reported in the supplement of paper PMC10307832.

Assays:
Assay in all cases: relative viability (nuclei count vs DMSO), 5 days (fraction); higher = more cells survive
201T = system: 201T
Outline: (§1)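 Five library-drug doses in √10 steps were combined with a fixed anchor-drug dose, or a single drug was given alone, by pin tool to lung cancer cell lines in 1536-well plates the day after seeding. Nuclei were stained and counted after 5 days. Relative viability is the nuclei count in treated wells over that in vehicle wells, taken as the median of duplicate plates.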

COR-L23 = system: COR-L23
Outline: as §1

EPLC-272H = system: EPLC-272H
Outline: as §1

H3255 = system: H3255
Outline: as §1

HCC-15 = system: HCC-15
Outline: as §1

LOU-NH91 = system: LOU-NH91
Outline: as §1

NCI-H1563 = system: NCI-H1563
Outline: as §1

NCI-H1650 = system: NCI-H1650
Outline: as §1

NCI-H1734 = system: NCI-H1734
Outline: as §1

NCI-H2023 = system: NCI-H2023
Outline: as §1

NCI-H2347 = system: NCI-H2347
Outline: as §1

NCI-H2405 = system: NCI-H2405
Outline: as §1

NCI-H3122 = system: NCI-H3122
Outline: as §1

NCI-H322M = system: NCI-H322M
Outline: as §1

NCI-H441 = system: NCI-H441
Outline: as §1

NCI-H520 = system: NCI-H520
Outline: as §1

NCI-H647 = system: NCI-H647
Outline: as §1

PC-14 = system: PC-14
Outline: as §1

UMC-11 = system: UMC-11
Outline: as §1

## Cc1sc2c(c1C)C(c1ccc(Cl)cc1)=N[C@@H](CC(=O)OC(C)(C)C)c1nnc(C)n1-2 [JQ1] + CC(C)C[C@H](NC(=O)[C@H](Cc1ccccc1)NC(=O)c1cnccn1)B(O)O [Bortezomib] (partner 0.002 µM)
201T; first compound 0.04 µM
  relative viability: 1.14
201T; first compound 0.1265 µM
  relative viability: 0.643
201T; first compound 0.4 µM
  relative viability: 1.02
201T; first compound 1.265 µM
  relative viability: 0.859
201T; first compound 4 µM
  relative viability: 0.768
COR-L23; first compound 0.04 µM
  relative viability: 0.981
COR-L23; first compound 0.1265 µM
  relative viability: 0.673
COR-L23; first compound 0.4 µM
  relative viability: 0.792
COR-L23; first compound 1.265 µM
  relative viability: 0.579
COR-L23; first compound 4 µM
  relative viability: 0.17
EPLC-272H; first compound 0.04 µM
  relative viability: 0.915
EPLC-272H; first compound 0.1265 µM
  relative viability: 0.911
EPLC-272H; first compound 0.4 µM
  relative viability: 0.989
EPLC-272H; first compound 1.265 µM
  relative viability: 0.414
EPLC-272H; first compound 4 µM
  relative viability: 0.367
H3255; first compound 0.04 µM
  relative viability: 0.628
H3255; first compound 0.1265 µM
  relative viability: 0.553
H3255; first compound 0.4 µM
  relative viability: 0.747
H3255; first compound 1.265 µM
  relative viability: 0.306
H3255; first compound 4 µM
  relative viability: 0.278
HCC-15; first compound 0.04 µM
  relative viability: 0.958
HCC-15; first compound 0.4 µM
  relative viability: 0.98
HCC-15; first compound 1.265 µM
  relative viability: 0.705
HCC-15; first compound 4 µM
  relative viability: 0.628
LOU-NH91; first compound 0.04 µM
  relative viability: 0.525
LOU-NH91; first compound 0.1265 µM
  relative viability: 0.476
LOU-NH91; first compound 0.4 µM
  relative viability: 0.428
LOU-NH91; first compound 1.265 µM
  relative viability: 0.3
LOU-NH91; first compound 4 µM
  relative viability: 0.327
NCI-H1563; first compound 0.04 µM
  relative viability: 0.909
NCI-H1563; first compound 0.1265 µM
  relative viability: 0.619
NCI-H1563; first compound 0.4 µM
  relative viability: 0.642
NCI-H1563; first compound 1.265 µM
  relative viability: 0.544
NCI-H1563; first compound 4 µM
  relative viability: 0.621
NCI-H1650; first compound 0.04 µM
  relative viability: 0.177
NCI-H1650; first compound 0.1265 µM
  relative viability: 0.191
NCI-H1650; first compound 0.4 µM
  relative viability: 0.187
NCI-H1650; first compound 1.265 µM
  relative viability: 0.175
NCI-H1650; first compound 4 µM
  relative viability: 0.208
NCI-H1734; first compound 0.04 µM
  relative viability: 0.967
NCI-H1734; first compound 0.1265 µM
  relative viability: 0.788
NCI-H1734; first compound 0.4 µM
  relative viability: 0.878
NCI-H1734; first compound 1.265 µM
  relative viability: 0.597
NCI-H1734; first compound 4 µM
  relative viability: 0.474
NCI-H2023; first compound 0.04 µM
  relative viability: 0.966
NCI-H2023; first compound 0.1265 µM
  relative viability: 0.57
NCI-H2023; first compound 0.4 µM
  relative viability: 0.437
NCI-H2023; first compound 1.265 µM
  relative viability: 0.263
NCI-H2023; first compound 4 µM
  relative viability: 0.193
NCI-H2347; first compound 0.04 µM
  relative viability: 1.13
NCI-H2347; first compound 0.1265 µM
  relative viability: 0.934
NCI-H2347; first compound 0.4 µM
  relative viability: 0.841
NCI-H2347; first compound 1.265 µM
  relative viability: 0.564
NCI-H2347; first compound 4 µM
  relative viability: 0.404
NCI-H2405; first compound 0.04 µM
  relative viability: 1.07
NCI-H2405; first compound 0.1265 µM
  relative viability: 0.628
NCI-H2405; first compound 0.4 µM
  relative viability: 1.03
NCI-H2405; first compound 1.265 µM
  relative viability: 0.827
NCI-H2405; first compound 4 µM
  relative viability: 0.678
NCI-H3122; first compound 0.04 µM
  relative viability: 1.01
NCI-H3122; first compound 0.1265 µM
  relative viability: 0.998
NCI-H3122; first compound 0.4 µM
  relative viability: 1.03
NCI-H3122; first compound 1.265 µM
  relative viability: 0.996
NCI-H3122; first compound 4 µM
  relative viability: 0.905
NCI-H322M; first compound 0.04 µM
  relative viability: 1.33
NCI-H322M; first compound 0.1265 µM
  relative viability: 1.24
NCI-H322M; first compound 0.4 µM
  relative viability: 1.35
NCI-H322M; first compound 1.265 µM
  relative viability: 1.04
NCI-H322M; first compound 4 µM
  relative viability: 0.94
NCI-H441; first compound 0.04 µM
  relative viability: 0.611
NCI-H441; first compound 0.1265 µM
  relative viability: 0.363
NCI-H441; first compound 0.4 µM
  relative viability: 0.443
NCI-H441; first compound 1.265 µM
  relative viability: 0.189
NCI-H441; first compound 4 µM
  relative viability: 0.174
NCI-H520; first compound 0.04 µM
  relative viability: 0.527
NCI-H520; first compound 0.1265 µM
  relative viability: 0.242
NCI-H520; first compound 0.4 µM
  relative viability: 0.157
NCI-H520; first compound 1.265 µM
  relative viability: 0.167
NCI-H520; first compound 4 µM
  relative viability: 0.136
NCI-H647; first compound 0.04 µM
  relative viability: 0.678
NCI-H647; first compound 0.1265 µM
  relative viability: 0.521
NCI-H647; first compound 0.4 µM
  relative viability: 0.346
NCI-H647; first compound 1.265 µM
  relative viability: 0.0716
NCI-H647; first compound 4 µM
  relative viability: 0.102
PC-14; first compound 0.04 µM
  relative viability: 0.811
PC-14; first compound 0.1265 µM
  relative viability: 0.901
PC-14; first compound 0.4 µM
  relative viability: 0.888
PC-14; first compound 1.265 µM
  relative viability: 0.346
PC-14; first compound 4 µM
  relative viability: 0.201
UMC-11; first compound 0.04 µM
  relative viability: 0.708
UMC-11; first compound 0.1265 µM
  relative viability: 0.522
UMC-11; first compound 0.4 µM
  relative viability: 0.367
UMC-11; first compound 1.265 µM
  relative viability: 0.216
UMC-11; first compound 4 µM
  relative viability: 0.136
